Measured values taken from patent US8921272B2, “Herbicidal composition” (Ishihara Sangyo Kaisha, Ltd., priority 2011, dated 2014).

Assays:
Assay type in all cases: in vivo
[1] = test system: goosegrass (Eleusine indica (L.) Gaertn.); test: Test Example 1: soil treatment pot test, visually observed growth inhibition of goosegrass; conditions: soil treatment one day after sowing, 14 days after treatment, 0 = non-treated, 100 = complete kill, read-out: Growth inhibition rate (%) of goosegrass, Measured value
Source text: When the herbicidal activity in a case where two active ingredients are combined, is larger than the simple sum of the respective herbicidal activities of the two active ingredients (the expected activity), it is called a synergistic effect. The activity expected by the combination of two active ingredients can be calculated as follows (Colby S. R., “Weed”, vol. 15, p. 20-22, 1967). […] β: growth inhibition rate when treated with y (g/ha) of herbicide Y, E: growth inhibition rate expected when treated with x (g/ha) of herbicide X and y (g/ha) of herbicide Y. That is, when the actual growth inhibition rate (measured value) is larger than the growth inhibition rate by the above calculation (calculated value), the activity by the combination can be regarded as showing a synergistic effect. […] Further, in accordance with the Colby's formula, the growth inhibition rate (%) (calculated value) was calculated.

[2] = test system: bermuda grass (Cynodon dactylon (L.) Pers.); test: Test Example 2: foliar treatment pot test, visually observed growth inhibition of bermuda grass; conditions: 504 h, foliar treatment at 4.0 to 4.5 leaf stage, 0.25 vol % Agral, 21 days after treatment, read-out: Growth inhibition rate (%) of bermuda grass, Measured value
Source text: (§1) When the herbicidal activity in a case where two active ingredients are combined, is larger than the simple sum of the respective herbicidal activities of the two active ingredients (the expected activity), it is called a synergistic effect. The activity expected by the combination of two active ingredients can be calculated as follows (Colby S. R., “Weed”, vol. 15, p. 20-22, 1967). E=α+β−(α×β÷100) where α: growth inhibition rate when treated with x (g/ha) of herbicide X,
(§2) β: growth inhibition rate when treated with y (g/ha) of herbicide Y,
(§3) E: growth inhibition rate expected when treated with x (g/ha) of herbicide X and y (g/ha) of herbicide Y.
(§4) That is, when the actual growth inhibition rate (measured value) is larger than the growth inhibition rate by the above calculation (calculated value), the activity by the combination can be regarded as showing a synergistic effect.
(§5) Growth inhibition rate (%)=0 (equivalent to the non-treated area) to 100 (complete kill)
Upland field soil was put into a 1/1,000,000 ha pot, and seeds of bermuda grass (Cynodon dactylon (L.) Pers.) were sown. […]

[3] = test system: green kyllinga (Cyperus brevifolius var. leiolepis); test: Test Example 3: foliar treatment pot test, visually observed growth inhibition of green kyllinga; conditions: 672 h, read-out: Growth inhibition rate (%) of green kyllinga, Measured value
Source text: as §1, §2, §3, §4, §5
Upland field soil was put into a 1/1,000,000 ha pot, and tubers of green kyllinga (Cyperus brevifolius var. leiolepis) were planted. […]

[4] = test system: corn (Zea mays L.); test: Test Example 4: soil treatment pot test, visually observed growth inhibition of corn (crop plant which became weeds); conditions: soil treatment one day after sowing, 28 days after treatment, read-out: Growth inhibition rate (%) of corn, Measured value
Source text: When the herbicidal activity in a case where two active ingredients are combined, is larger than the simple sum of the respective herbicidal activities of the two active ingredients (the expected activity), it is called a synergistic effect. The activity expected by the combination of two active ingredients can be calculated as follows (Colby S. R., “Weed”, vol. 15, p. 20-22, 1967). […] β: growth inhibition rate when treated with y (g/ha) of herbicide Y, E: growth inhibition rate expected when treated with x (g/ha) of herbicide X and y (g/ha) of herbicide Y. That is, when the actual growth inhibition rate (measured value) is larger than the growth inhibition rate by the above calculation (calculated value), the activity by the combination can be regarded as showing a synergistic effect. […] One day later, water dispersible granules containing flazasulfuron as an active ingredient (tradename: SHIBAGEN DF) and water dispersible granules containing amicarbazone as an active ingredient ([…]) in predetermined amounts were diluted with water (corresponding to 200 Uha) and applied for soil treatment by a small sprayer.

CC(C)c1nn(C(=O)NC(C)(C)C)c(=O)n1N [Amicarbazone, 4-amino-N-tertiary butyl-4,5-dihydro-3-isopropyl-5-oxo-1,2,4-1H-triazole-1-carboxamide] was tested, and the inhibition at 1050 g/ha ([1]; dose 1050 g/ha) was 68%, the inhibition at 150 g/ha ([2]; dose 150 g/ha) was 0% and the inhibition at 1250 g/ha ([3]; foliar) was 69%. For the same molecule, the inhibition at 2500 g/ha ([4]; dose 2500 g/ha) was 87%.
In the case of COc1cc(OC)nc(NC(=O)NS(=O)(=O)c2ncccc2C(F)(F)F)n1 [Flazasulfuron, 1-(4,6-dimethoxypyrimidin-2-yl)-3-(3-trifluoromethyl-2-pyridylsulfonyl)urea], the inhibition at 37.5 g/ha ([1]; dose 37.5 g/ha) is reported as 53%, the inhibition at 200 g/ha ([2]; dose 200 g/ha) is reported as 15% and the inhibition at 5 g/ha ([3]; dose 5 g/ha, foliar treatment at 6.0 to 7.0 cm, 0.025 vol % Agral, 28 days after treatment) is reported as 0%. The inhibition at 5 g/ha ([4]; dose 5 g/ha) was 40%.
